In data set [1] the test system is indomethacin-induced gastric damage. Briefly: Inhibition of indomethacin-induced gastric damage in the rat (anti-ulcer activity, method of Elegbe). Format: in vivo. To be noted: po, 5 h, indomethacin 15 mg/kg s.c., compound 100 mg/kg orally, 30 min prior to and 2 h post indomethacin, read-out: Table 1 % Inhibition (mean inhibition of gastric damage). The method, then: This was assessed by the inhibition of indomethacin-induced gastric damage in the rat according to the method of Elegbe (Israeli J. Med. Sci. (1974), 10, 1451).
Rats were starved overnight, given indomethacin subcutaneously (15 mg/kg) and sacrificed 5 hours later. Stomachs were inflated with 0.9% saline, cut along the greater curvature, pinned out and scored for gastric damage by the following system:
Score 1-3 according to the degree of erythema and slight haemorrhage.
Score 4-6 according to degree of mucosal erosion.
Score 7-9 according to depth of gastric damage.
Groups of 7 rats were used for each treatment level of compound, and a similar group receiving vehicle only was set up on each occasion of testing. Compound or vehicle was administered orally 30 minutes prior to, and at 2 hours post, dosing with indomethacin. Mean values per treatment were obtained using the above scoring system and the Mann Witney test applied for significance between such values. The mean inhibition of gastric damage from a number of experiments is shown in the following Table 1; the dosage being 100 mg/kg orally.

The test system of data set [2] is gastric secretion. Briefly: Effects on gastric secretion in the pyloric ligated rat (method of Shay et al.). The format is in vivo. To be noted: intraduodenal, 100 mg/kg i.d., sacrificed 3 hours later. The method, then: 2. Effects on Gastric Secretion, in the Pyloric Ligated Rat
The method described by Shay, et al. (Gastroenterol (1945) 26, 906) was used. After overnight starvation the pylorus of a rat was ligated under halothane anaesthesia, the Compound vehicle only administered intraduodenally and the rats allowed to recover. They were sacrificed 3 hours later and the gastric juice removed. After measurement of the volume of secretion, its hydrogen ion concentration, [H^+ ], was determined by titration with 0.05 N NaOH to pH 7. Groups of 4-6 animals were used for each treatment and the inhibitory effect of the Compound was ascertained by comparison of the mean values obtained with those from a simultaneously set up control group of animals which received vehicle only. Students `t` test was applied for significance between groups. The mean values for % inhibition obtained for a number of experiments are shown in the following Table 2, the dosage being 100 mg/kg i.d.

Data set [3] can be described thus: Acute toxicity in mice. As to conditions: mouse, in vivo. On the procedure: (§1) 5 (Z-isomer) up to 536 or 824 mg/kg in mice and rats respectively. The acute oral median lethal dose of compound no. 5 is 1268 mg/kg in male mice and 2311 mg/kg in male rats.
Data set [4] can be described thus: Acute toxicity in rats. To be noted: rat, in vivo. The method, then: as §1
The subject of data set [5] is gastric secretion. Briefly: Effects on gastric secretion in the pyloric ligated rat (method of Shay et al.). The format is in vivo. As to conditions: intraduodenal, 50 mg/kg i.d., sacrificed 3 hours later.
[6] abbreviates: read-out: Table 2 % Inhibition Volume (volume of gastric secretion).
Where [7] appears, read: read-out: Table 2 % Inhibition [H^+ ] (hydrogen ion concentration).

This passage reports inhibition in vivo, LD50 and NOAEL results from patent US4327213A, “Alpha-hydrocarbonoxyimino-pyrazineacetonitriles” (ACF Chemiefarma VA, priority 1977, dated 1982).

Read-outs that look alike come from different tables or passages of the source. A value given as a limit tells only on which side of the number the result lay.

In the case of `CO/N=C(/C#N)c1cnccn1` [5 (E-isomer), α-Methoxyiminopyrazineacetonitrile], the inhibition in vivo at 100 mg/kg in data set [1] was 96%.
Turning to `CO/N=C(\C#N)c1ccc2ccccc2n1` [6 ee], the inhibition in vivo at 100 mg/kg came to 28% in data set [2] (setting [6]) and 84% in data set [1].
For the molecule `N#C/C(=N\OC1CCCCC1)c1cnccn1` [6 e], the inhibition in vivo at 100 mg/kg came out at 62% in data set [2] (setting [6]) and 48% in data set [2] (setting [7]).
As to `CO/N=C(\C#N)c1c[n+](C)ccn1` [Compound 15, α-Methoxyimino-2-pyrazineacetonitrile-4-methiodide], in data set [1], the inhibition in vivo at 100 mg/kg amounted to 55%.
With `CON=Cc1cnccn1` [12 (and 13), Pyrazine carboxaldehyde, O-methyl oxime], the inhibition in vivo at 100 mg/kg was 42% in data set [2] (setting [6]) and 66% in data set [1].
Regarding `CCO/N=C(\C#N)c1cnccn1` [6 b], the inhibition in vivo at 100 mg/kg in data set [2] (setting [6]) was determined as 66%; in data set [2] (setting [7]), 60%; in data set [1], 68%.
For the molecule `CON=C(C#N)c1cnccn1` [Compound 5, α-Methoxyiminopyrazineacetonitrile], the LD50 in data set [3] (male mice, oral, read-out: Acute oral median lethal dose) worked out at 1270 mg/kg; in data set [4] (male rats, oral, read-out: Acute oral median lethal dose) it was 2310 mg/kg.
With `CON=C(C#N)c1ccncc1` [6 cc], the inhibition in vivo at 100 mg/kg is 80% in data set [2] (setting [6]), 39% in data set [2] (setting [7]) and 95% in data set [1].
As for `CO/N=C(/C(N)=O)c1ccccn1` [9 c], the inhibition in vivo at 100 mg/kg in data set [2] (setting [6]) amounted to 40%; in data set [1], 65%.
Take `CON=C(C#N)c1cccnc1` [6 bb]: in data set [1], the inhibition in vivo at 100 mg/kg amounted to 72%.
Take `CO/N=C(\C#N)c1cnc2ccccc2n1` [6 nn]: the figures for the inhibition in vivo at 100 mg/kg in data set [2] (setting [6]) and in data set [1] were 28% and 79%, respectively.
For `CO/N=C(\C#N)c1nccc2ccccc12` [6 mm] the same measures were 28% and 42%.
As to `CON=C(C#N)c1cncnc1` [6 dd], the inhibition in vivo at 100 mg/kg worked out at 35% in data set [2] (setting [6]), 39% in data set [2] (setting [7]) and 77% in data set [1].
As to `CON=C(c1ccccn1)C(F)(F)F` [Compound 7, 2-Pyridinyl trifluoromethyl ketone, O-methyl oxime], the inhibition in vivo at 100 mg/kg stood at 74% in data set [2] (setting [6]) and 33% in data set [2] (setting [7]).
`CC(C)O/N=C(\C#N)c1cnccn1` [6 c]: the inhibition in vivo at 100 mg/kg in data set [2] (setting [6]) was 52%; in data set [1] it was 43%.
As to `CO/N=C(\C#N)c1ccc2ccc(C)cc2n1` [6 gg], the inhibition in vivo at 100 mg/kg in data set [1] worked out at 42%.
Regarding `CO/N=C(\C#N)c1cnccn1` [5 (Z-isomer), α-Methoxyiminopyrazineacetonitrile], the NOAEL in data set [3] (mice, single doses, read-out: Single dose up to which no adverse effects were seen) was not below 536 mg/kg; in data set [4] (rats, single doses, read-out: Single dose up to which no adverse effects were seen), not below 824 mg/kg. The inhibition in vivo at 100 mg/kg in data set [2] (setting [6]) is 70%; in data set [2] (setting [7]) it was 73%; in data set [1] it was 94%.
For `CCCCO/N=C(\C#N)c1cnccn1` [6 d], in data set [1], the inhibition in vivo at 100 mg/kg amounted to 50%.
As for `CON=C(C#N)c1ccccn1` [6 a], the inhibition in vivo at 100 mg/kg in data set [2] (setting [6]) and in data set [1] was 62% each time.
As for `CO/N=C(\C(N)=S)c1ccccn1` [8 (and 10), α-Methoxyimino-2-pyridinethioacetamide], the inhibition in vivo at 100 mg/kg in data set [1] is 74%. In addition, the inhibition in vivo at 50 mg/kg was found to be 32% in data set [5] (setting [6]) and 24% in data set [5] (setting [7]).
Regarding `CO/N=C(\C#N)c1ccc2cc(C)ccc2n1` [6 ff], the inhibition in vivo at 100 mg/kg in data set [1] was determined as 42%.
For the molecule `CO/N=C(\C(N)=O)c1ccccn1` [9 b], the values for the inhibition in vivo at 100 mg/kg in data set [2] (setting [6]) and in data set [1] were 26% and 56%, respectively.
Regarding `CON=C(C#N)c1cccc(Cl)n1` [6 aa], the inhibition in vivo at 100 mg/kg in data set [2] (setting [6]) turned out to be 35%; in data set [2] (setting [7]) it was 23%.
As to `CO/N=C(\C#N)c1c[n+]([O-])ccn1` [14 a], the inhibition in vivo at 100 mg/kg in data set [2] (setting [6]) came out at 50%; in data set [2] (setting [7]), 34%; in data set [1], 91%.
For `CO/N=C(/C#N)c1cnc2ccccn12` [6 qq] the same measures were 77%, 29% and 100%.
For `CO/N=C(\C#N)c1ccnc2ccccc12` [6 ll] the same measures were 85%, 23% and 85%.
